Assay results reported in US20260184712A1, “Heterocyclic Compounds as ENT Inhibitors and Compounds for Use in the Treatment of Cancers” (iTeos Belgium SA, priority 2022, published 2026).

Target: T1, human ENT1 (Homo sapiens, UniProt Q99808)
T1 construct: JAR cells expressing ENT1 were purchased from ATCC; host or cells: JAR cells
T1 sequence (Q99808 1-456): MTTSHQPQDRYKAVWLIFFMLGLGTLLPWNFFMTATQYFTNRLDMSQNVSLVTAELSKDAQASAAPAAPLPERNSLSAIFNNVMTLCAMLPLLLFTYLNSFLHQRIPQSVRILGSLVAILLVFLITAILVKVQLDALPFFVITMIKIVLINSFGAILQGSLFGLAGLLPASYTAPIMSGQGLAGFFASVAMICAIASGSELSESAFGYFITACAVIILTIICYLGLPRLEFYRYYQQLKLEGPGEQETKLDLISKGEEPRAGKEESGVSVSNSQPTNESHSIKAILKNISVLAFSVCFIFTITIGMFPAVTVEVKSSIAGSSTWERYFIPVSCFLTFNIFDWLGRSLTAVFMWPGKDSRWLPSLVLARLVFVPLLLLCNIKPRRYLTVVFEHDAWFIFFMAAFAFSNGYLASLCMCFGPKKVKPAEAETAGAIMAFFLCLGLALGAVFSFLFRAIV
Test: ENT1 binding assay (competition with Sahenta-DY647 on JAR cells)
Details: competition with SAHENTA-DY647 binding; IC50 categorized; read-out: Binding Assay IC50
In short: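 Whole-cell competition on JAR cells (native ENT1): 50,000 cells pre-incubated 30 min at 4 °C with compound in HBSS/10 mM Hepes/0.1% BSA, then 100 nM Sahenta-DY647 added for 30 min at 4 °C. After washing, fluorescence (Ex 630/Em 670 nm) read; IC50 from sigmoidal fit, averaged as pIC50.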

With `C[C@H]1O[C@@H](n2cnc3c(NC(=O)c4ccc([N+](=O)[O-])cc4)ncnc32)[C@H](O)[C@@H]1O` [Compound 412] the IC50 was over 500 nM.
For `C[C@H]1O[C@@H](n2c(NCc3cnn(C)c3)nc3c(N4CCc5ccc([N+](=O)[O-])cc5C4)ncnc32)[C@H](O)[C@@H]1O` [Compound 138], the IC50 was under 1 nM.
In the case of `C[C@H]1O[C@@H](n2c(NCCCS(C)(=O)=O)nc3c(OCc4ccc([N+](=O)[O-])cc4)ncnc32)[C@H](O)[C@@H]1O` [Compound 60], the IC50 is reported as 1 to 20 nM.
For `C[C@H]1O[C@@H](n2cnc3c(C(=O)NCc4ccc(Cl)cc4)ncnc32)[C@H](O)[C@@H]1O` [Compound 353], the IC50 was over 500 nM.
Work on `O=C(NCCO)[C@H]1O[C@@H](n2cnc3c(OCc4ccc([N+](=O)[O-])cc4)ncnc32)[C@H](O)[C@@H]1O` [Compound 271] yielded an IC50 of over 500 nM.
Molecule `C[C@H]1O[C@@H](n2cnc3c(OCc4ccc([N+](=O)[O-])nc4)ncnc32)[C@H](O)[C@@H]1O` [Compound 205] has an IC50 of 20 to 500 nM.
Work on `C[C@H]1O[C@@H](n2cnc3c(NCc4cc(C(F)(F)F)ccc4F)ncnc32)[C@H](O)[C@@H]1O` [Compound 378] yielded an IC50 of over 500 nM.
`C[C@H]1O[C@@H](n2c(C(=O)NC3CCCC3)nc3c(OCc4ccc([N+](=O)[O-])cc4)ncnc32)[C@H](O)[C@@H]1O` [Compound 3] gave an IC50 of 20 to 500 nM.
`Cc1nc(=O)c2cc(COc3ncnc4c3ncn4[C@@H]3O[C@H](C)[C@@H](O)[C@H]3O)ccc2[nH]1` [Compound 367] showed an IC50 of over 500 nM.
Molecule `C[C@H]1O[C@@H](n2cnc3c(OCc4ccc(-n5ccnc5)cc4)ncnc32)[C@H](O)[C@@H]1O` [Compound 316] has an IC50 of over 500 nM.
With `C[C@H]1O[C@@H](n2cnc3c(SCc4cscn4)ncnc32)[C@H](O)[C@@H]1O` [Compound 300] the IC50 was over 500 nM.
Molecule `C[C@H]1O[C@@H](n2cnc3c(OCCc4cnc(OCF)nc4)ncnc32)[C@H](O)[C@@H]1O` [Compound 356] has an IC50 of over 500 nM.
For `C[C@H]1O[C@@H](n2c(NCCCO)nc3c(N4CCc5ccc(C#N)cc5C4)ncnc32)[C@H](O)[C@@H]1O` [Compound 155], the IC50 was 1 to 20 nM.
With `C[C@H]1O[C@@H](n2cnc3c(OCc4ccc(C(F)(F)F)cc4Cl)ncnc32)[C@H](O)[C@@H]1O` [Compound 307] the IC50 was over 500 nM.
Molecule `C[C@H]1O[C@@H](n2cnc3c(OCc4ccc(C#N)cc4)nc(Cl)nc32)[C@H](O)[C@@H]1O` [Compound 244] has an IC50 of over 500 nM.
Work on `COCCCNc1nc2c(N3CCc4ccc([N+](=O)[O-])cc4C3)ncnc2n1[C@@H]1O[C@H](C)[C@@H](O)[C@H]1O` [Compound 146] yielded an IC50 of 1 to 20 nM.
Work on `C[C@H]1O[C@@H](n2cnc3c(C4CCc5ccc([N+](=O)[O-])cc5C4)ncnc32)[C@H](O)[C@@H]1O` (some centres unmarked) [Compound 227] yielded an IC50 of over 500 nM.
With `COCCCNc1nc2c(OCc3ccc(C#N)cc3)ncnc2n1[C@@H]1O[C@H](C)[C@@H](O)[C@H]1O` [Compound 45] the IC50 was 1 to 20 nM.
In the case of `C[C@H]1O[C@@H](n2cnc3c(N(C)CCc4ccc([N+](=O)[O-])cc4)ncnc32)[C@H](O)[C@@H]1O` [Compound 324], the IC50 is reported as over 500 nM.
For `C[C@H]1O[C@@H](n2cnc3c(C(=O)N4CCC4c4ccccc4)ncnc32)[C@H](O)[C@@H]1O` (some centres unmarked) [Compound 422], the IC50 was over 500 nM.
With `C[C@H]1O[C@@H](n2c(NC3CCOCC3)nc3c(N4CCc5ccc([N+](=O)[O-])cc5C4)ncnc32)[C@H](O)[C@@H]1O` [Compound 148] the IC50 was 1 to 20 nM.
For `C[C@H]1O[C@@H](n2cnc3c(NCc4ccc(C(F)(F)F)c(Cl)c4)ncnc32)[C@H](O)[C@@H]1O` [Compound 282], the IC50 was over 500 nM.
`CNS(=O)(=O)c1ccc(CSc2ncnc3c2ncn3[C@@H]2O[C@H](C)[C@@H](O)[C@H]2O)cc1` [Compound 297] gave an IC50 of over 500 nM.
Molecule `C[C@H]1O[C@@H](n2cnc3c(OCc4ccc(F)c(F)c4)ncnc32)[C@H](O)[C@@H]1O` [Compound 201] has an IC50 of 20 to 500 nM.
With `C[C@H]1O[C@@H](n2c(N(C)C3CCCC3)nc3c(OCc4ccc([N+](=O)[O-])cc4)ncnc32)[C@H](O)[C@@H]1O` [Compound 1] the IC50 was over 500 nM.
Work on `C[C@H]1O[C@@H](n2c(N[C@H]3C[C@@](C)(O)C3)nc3c(OCc4ccc(OC(F)F)cc4)ncnc32)[C@H](O)[C@@H]1O` [Compound 123] yielded an IC50 of 1 to 20 nM.
